Measured values from patent publication US12685312B2, “Sulfonamide apyrase inhibitors” (Texas Crop Science, Inc., priority 2022, dated 2026).

These compounds were tested on apyrase (assay: Screen for apyrase inhibitors (Method 1, in vitro phosphate-release absorbance assay)). Conditions: inhibitor conc at 1 mM stock, 1 hr room temperature, absorbance 630 nm; rounded average of two assay results.
Type: biochemical
Summary of the method: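 Phosphate-release colorimetric assay (Windsor method) in 60 mM Hepes, 3 mM MgCl2, 3 mM CaCl2, 3 mM ATP, pH 6.5, with compound or DMSO control added. Released phosphate developed with ammonium molybdate and ascorbic acid/TCA, then stopped with citrate/acetic acid.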

Row | Compound | % Inhibition of Apyrase [%]
1 | CN(c1ccccc1)S(=O)(=O)c1cccc(C(=O)N2CCCc3ccccc32)c1 [I-482, N-methyl-N-phenyl-3-(1,2,3,4-tetrahydroquinoline-1-carbonyl)benzenesulfonamide] | 58
2 | CC1Cc2ccccc2N1S(=O)(=O)c1cccc(C(=O)Nc2ccc(Oc3ccccc3)cc2)c1 (stereo not shown) [I-483, 3-((2-methylindolin-1-yl)sulfonyl)-N-(4-phenoxyphenyl)benzamide] | 58
3 | CC1Cc2ccccc2N1S(=O)(=O)c1cccc(C(=O)Nc2cccc3cccnc23)c1 (stereo not shown) [I-484, 3-((2-methylindolin-1-yl)sulfonyl)-N-(quinolin-8-yl)benzamide] | 58
4 | O=C(c1cccc(S(=O)(=O)N2CCCc3ccccc32)c1)N1CCc2ccccc21 [I-485, (3-((3,4-dihydroquinolin-1(2H)-yl)sulfonyl)phenyl)(indolin-1-yl)methanone] | 58
5 | C=CCN(c1ccc(Cl)cc1)S(=O)(=O)c1ccc(Cl)c(C(=O)N2CCc3ccccc32)c1 [I-486, N-allyl-4-chloro-N-(4-chlorophenyl)-3-(indoline-1-carbonyl)benzenesulfonamide] | 58
6 | CC1Cc2ccccc2N1S(=O)(=O)c1cccc(C(=O)Nc2cccc(Oc3ccccc3)c2)c1 (stereo not shown) [I-487, 3-((2-methylindolin-1-yl)sulfonyl)-N-(3-phenoxyphenyl)benzamide] | 58
7 | O=C(Nc1cc(F)ccc1F)c1cccc(S(=O)(=O)N2CCc3ccccc32)c1 [I-488, N-(2,5-difluorophenyl)-3-(indolin-1-ylsulfonyl)benzamide] | 58
8 | Cc1cccc(NS(=O)(=O)c2ccc(C)c(C(=O)N3CCCc4ccccc43)c2)c1 [I-489, 4-methyl-3-(1,2,3,4-tetrahydroquinoline-1-carbonyl)-N-(m-tolyl)benzenesulfonamide] | 58
9 | O=C(c1cc(S(=O)(=O)Nc2ccc(Cl)cc2)ccc1Cl)N1CCc2ccccc21 [I-490, 4-chloro-N-(4-chlorophenyl)-3-(indoline-1-carbonyl)benzenesulfonamide] | 58
10 | Cc1cccc(NS(=O)(=O)c2cccc(C(=O)Nc3ccc(Br)c(C)c3)c2)c1 [I-491, N-(4-bromo-3-methylphenyl)-3-(N-(m-tolyl)sulfamoyl)benzamide] | 58
11 | O=C(Nc1ccccc1N1CCCC1)c1cccc(S(=O)(=O)N2CCc3ccccc32)c1 [I-492, 3-(indolin-1-ylsulfonyl)-N-(2-(pyrrolidin-1-yl)phenyl)benzamide] | 58
12 | Cc1cc(F)c2c(c1)CCCN2C(=O)c1cccc(S(=O)(=O)N2CCc3ccccc32)c1 [I-493, (8-fluoro-6-methyl-3,4-dihydroquinolin-1(2H)-yl)(3-(indolin-1-ylsulfonyl)phenyl)methanone] | 58
13 | CC1Cc2ccccc2N1S(=O)(=O)c1cccc(C(=O)N2CCc3cccc(F)c32)c1 (stereo not shown) [I-494, (7-fluoroindolin-1-yl)(3-((2-methylindolin-1-yl)sulfonyl)phenyl)methanone] | 57
14 | O=C(c1ccc(Cl)c(S(=O)(=O)N2CCc3ccccc32)c1)N1CCc2cc([N+](=O)[O-])ccc21 [I-495, (4-chloro-3-(indolin-1-ylsulfonyl)phenyl)(5-nitroindolin-1-yl)methanone] | 57
15 | O=C(Nc1cc2c(cc1Cl)OCO2)c1ccc(Cl)c(S(=O)(=O)N2CCc3ccccc32)c1 [I-496, 4-chloro-N-(6-chlorobenzo[d][1,3]dioxol-5-yl)-3-(indolin-1-ylsulfonyl)benzamide] | 57
16 | Cc1ccc(F)c(NC(=O)c2cccc(S(=O)(=O)N3c4ccccc4CC3C)c2)c1 (stereo not shown) [I-497, N-(2-fluoro-5-methylphenyl)-3-((2-methylindolin-1-yl)sulfonyl)benzamide] | 57
17 | O=C(c1cccc(S(=O)(=O)N2CCc3ccccc32)c1)N1CCCc2ccccc21 [I-498, (3,4-dihydroquinolin-1(2H)-yl)(3-(indolin-1-ylsulfonyl)phenyl)methanone] | 57
18 | COc1ccc(S(=O)(=O)N2CCc3ccccc32)cc1C(=O)Nc1cccc(C)c1 [I-499, 5-(indolin-1-ylsulfonyl)-2-methoxy-N-(m-tolyl)benzamide] | 57
19 | COc1cccc(NC(=O)c2ccc(Cl)c(S(=O)(=O)N3CCc4ccccc43)c2)c1 [I-500, 4-chloro-3-(indolin-1-ylsulfonyl)-N-(3-methoxyphenyl)benzamide] | 57
20 | Cc1ccc(NC(=O)c2cccc(S(=O)(=O)N3CCc4ccccc43)c2)cc1 [I-501, 3-(indolin-1-ylsulfonyl)-N-(p-tolyl)benzamide] | 57
21 | Cc1ccc(NC(=O)c2cccc(S(=O)(=O)N(C)c3ccc(C)cc3)c2)cc1 [I-502, 3-(N-methyl-N-(p-tolyl)sulfamoyl)-N-(p-tolyl)benzamide] | 57
22 | O=C(Nc1ccc(Cl)cc1)c1cccc(S(=O)(=O)N2CCc3ccccc32)c1 [I-503, N-(4-chlorophenyl)-3-(indolin-1-ylsulfonyl)benzamide] | 57

Row | Compound | % Inhibition of Apyrase [%]
23 | Cc1ccc(N(C)S(=O)(=O)c2cccc(C(=O)Nc3ccc4c(c3)CCC4)c2)cc1 [I-504, N-(2,3-dihydro-1H-inden-5-yl)-3-(N-methyl-N-(p-tolyl)sulfamoyl)benzamide] | 57
24 | COc1ccc(S(=O)(=O)N2CCc3ccccc32)cc1C(=O)Nc1ccc(C(F)(F)F)cc1 [I-505, 5-(indolin-1-ylsulfonyl)-2-methoxy-N-(4-(trifluoromethyl)phenyl)benzamide] | 57
25 | CCOC(=O)c1c(NC(=O)c2cccc(S(=O)(=O)Nc3ccc(Cl)cc3)c2)sc2c1CCCC2 [I-506, ethyl 2-(3-(N-(4-chlorophenyl)sulfamoyl)benzamido)-4,5,6,7-tetrahydrobenzo[b]thiophene-3-carboxylate] | 57
26 | CCOC(=O)c1c(NC(=O)c2cccc(S(=O)(=O)Nc3cccc(Cl)c3)c2)sc2c1CCCC2 [I-507, ethyl 2-(3-(N-(3-chlorophenyl)sulfamoyl)benzamido)-4,5,6,7-tetrahydrobenzo[b]thiophene-3-carboxylate] | 57
27 | Cc1ccc(NS(=O)(=O)c2cccc(C(=O)Nc3c(C)cc(C)cc3C)c2)c(C)c1 [I-508, 3-(N-(2,4-dimethylphenyl)sulfamoyl)-N-mesitylbenzamide] | 57
28 | COc1ccc2c(c1)CCCN2C(=O)c1cccc(S(=O)(=O)N2CCc3ccccc32)c1 [I-509, (3-(indolin-1-ylsulfonyl)phenyl)(6-methoxy-3,4-dihydroquinolin-1(2H)-yl)methanone] | 56
29 | Cc1cccc2c1N(C(=O)c1cccc(S(=O)(=O)N3CCc4ccccc43)c1)CCC2 [I-510, (3-(indolin-1-ylsulfonyl)phenyl)(8-methyl-3,4-dihydroquinolin-1(2H)-yl)methanone] | 56
30 | COc1ccc(S(=O)(=O)N2CCc3ccccc32)cc1C(=O)Nc1ccc2c(c1)OCO2 [I-511, N-(benzo[d][1,3]dioxol-5-yl)-5-(indolin-1-ylsulfonyl)-2-methoxybenzamide] | 56
31 | O=C(Nc1ccc(F)cc1)c1cccc(S(=O)(=O)N2CCc3ccccc32)c1 [I-512, N-(4-fluorophenyl)-3-(indolin-1-ylsulfonyl)benzamide] | 56
32 | O=C(Nc1ccc(F)cc1)c1ccc(Cl)c(S(=O)(=O)N2CCc3ccccc32)c1 [I-513, 4-chloro-N-(4-fluorophenyl)-3-(indolin-1-ylsulfonyl)benzamide] | 56
33 | COc1ccc(NC(=O)c2cccc(S(=O)(=O)N(C)c3ccc(OC)cc3)c2)cc1 [I-514, N-(4-methoxyphenyl)-3-(N-(4-methoxyphenyl)-N-methylsulfamoyl)benzamide] | 56
34 | O=C(Nc1cccc(Cl)c1)c1cccc(S(=O)(=O)N2CCc3ccccc32)c1 [I-515, N-(3-chlorophenyl)-3-(indolin-1-ylsulfonyl)benzamide] | 56
35 | C=CCN(c1ccccc1Cl)S(=O)(=O)c1cc(C(=O)N2CCc3ccccc32)ccc1Cl [I-516, N-allyl-2-chloro-N-(2-chlorophenyl)-5-(indoline-1-carbonyl)benzenesulfonamide] | 56
36 | Cc1ccc(F)cc1NC(=O)c1cccc(S(=O)(=O)N2CCc3ccccc32)c1 [I-517, N-(5-fluoro-2-methylphenyl)-3-(indolin-1-ylsulfonyl)benzamide] | 56
37 | Cc1cccc(NC(=O)c2cc(S(=O)(=O)Nc3cccc(C)c3)ccc2Cl)c1 [I-518, 2-chloro-N-(m-tolyl)-5-(N-(m-tolyl)sulfamoyl)benzamide] | 56
38 | O=C(Nc1ccc(Cl)cc1Cl)c1cccc(S(=O)(=O)Nc2ccc(Cl)cc2)c1 [I-519, 3-(N-(4-chlorophenyl)sulfamoyl)-N-(2,4-dichlorophenyl)benzamide] | 56
39 | COc1ccc(Cl)cc1NS(=O)(=O)c1cccc(C(=O)N2CCc3ccccc32)c1 [I-520, N-(5-chloro-2-methoxyphenyl)-3-(indoline-1-carbonyl)benzenesulfonamide] | 56
40 | O=C(c1cccc(S(=O)(=O)Nc2ccc(OCc3ccccc3)cc2)c1)N1CCc2ccccc21 [I-521, N-(4-(benzyloxy)phenyl)-3-(indoline-1-carbonyl)benzenesulfonamide] | 56
41 | CC1Cc2ccccc2N1S(=O)(=O)c1cccc(C(=O)Nc2ccc3c(c2)OCO3)c1 (stereo not shown) [I-522, N-(benzo[d][1,3]dioxol-5-yl)-3-((2-methylindolin-1-yl)sulfonyl)benzamide] | 55
42 | O=C(Nc1ccc2c(c1)OCCO2)c1cccc(S(=O)(=O)N2CCc3ccccc32)c1 [I-523, N-(2,3-dihydrobenzo[b][1,4]dioxin-6-yl)-3-(indolin-1-ylsulfonyl)benzamide] | 55
43 | O=C(Nc1ccc2c(c1)OCCO2)c1ccc(Cl)c(S(=O)(=O)N2CCc3ccccc32)c1 [I-524, 4-chloro-N-(2,3-dihydrobenzo[b][1,4]dioxin-6-yl)-3-(indolin-1-ylsulfonyl)benzamide] | 55
